Data: US20010006673A1, “LUTEIN- CONTAINING SUPPLEMENT AND PROCESS FOR ENHANCING IMMUNE RESPONSE IN ANIMALS” (priority 1998, published 2001)

Key:
[1] = design: species or system Beagle dogs; settings: dog, in vivo
Protocol: Fifty six female Beagle dogs (17 to 18 months old; average body weight 11.4±0.4 kg) were randomly assigned to be supplemented daily with 0, 5, 10 or 20 mg lutein for 17 weeks. The lutein contained 76.66% lutein and 5.23% zeaxanthin. The lutein supplement was resuspended in soybean oil to the appropriate concentration and 1 mL administered perorally at 0800 h daily. Food (200 g/dog/d) was offered immediately after the lutein supplementation. The basal diet shown in Table 1 below met or exceeded the requirements for all essential nutrients (NRC 1985).
All dogs were housed in 2×2 m pens (2 dogs/pen) in a temperature (20 to 22° C.) and light (14 h light) controlled facility. Body weight was recorded at weeks 0, 6, and 12.

[2] = tested on: Crandell feline kidney fibroblast; experiment: NK cytotoxicity assay, cats; format: in vivo, Tabby cats
Protocol: The Crandell feline kidney fibroblast was used as the target cell. Target cells were resuspended to 2×10^5 cells/mL and triplicate 100 μL aliquots were pipetted into a 96-well U-bottom plate (Costar, Cambridge, Mass.) and cells allowed to adhere. Isolated PBMC (effector cells) were then added to the target cells to achieve effector:target cell (E:T) ratios of 25:1, 12.5:1 and 6.25:1. The cell mixture was incubated for 8 hours after which 100 μL Rose Bengal (2.5 g/L in PBS; Sigma, St. Louis, Mo.) were added and incubated at room temperature for 5 minutes. Optical density was measured at 550 nm using an ELISA plate reader. The percentage of NK-specific lysis was calculated as follows:
Specific cytotoxicity (%)=100×{1−[(OD of target cells and effector cells−OD of effector cells)/(OD of target cells)]}

[3] = tested on: mouse splenocytes; settings: dietary lutein; cited from earlier work

## CC1=C[C@H](O)CC(C)(C)[C@H]1/C=C/C(C)=C/C=C/C(C)=C/C=C/C=C(C)/C=C/C=C(C)/C=C/C1=C(C)C[C@@H](O)CC1(C)C [lutein]
[1]
  Body weight average: 11.4 ± 0.4 kg
  Effect on changes in body weight: did not significantly affect
[2]; cats fed 1 mg lutein, week 12 (E:T of 6.25:1) and 8 (E:T of 25:1)
  NK cell cytotoxicity: significantly higher
[2]; cats fed 10 mg lutein, week 8, significant with E:T ratios of 6.25:1 and 25:1
  NK cell cytotoxic activity: higher
[2]; cats, E:T ratio of 12.5:1
  NK cell cytotoxicity: No significant treatment differences
[3]
  Lymphocyte proliferation: enhance
